The subject of experiment [1] is human aortic vascular smooth muscle cell (HASOM cells). In words: PDGF-BB induced migration of human aortic vascular smooth muscle cells, Boyden chamber. Type of experiment: cell-based. The protocol:
The cells were then cultured in the presence of these agents for forty-eight hours prior to the migration assay. […] Each well contained an insert with a polycarbonate filter having 8 μm pores. In preparation for the migration assays, the membranes were coated with 0.1% gelatin for 8 hours, aspirated, and allowed to dry for 2 hours.
The M-199 media containing 0.5% BSA and 20 ng/ml human PDGF-B (hPDGF-BB) was placed in the bottom Boyden chamber. Cells were incubated at 5% CO2 at 37° C. for twelve hours and the cells lying on the upper surface of the membrane were scraped off. The insert membranes were removed and the cells on the lower surface of each membrane were stained with hematoxylin. Cell migration was then quantified by counting the cells in five random high-power fields on the lower surface of the membrane. All assays were run in triplicate.

In experiment [2] the test system is cells of porcine origin from a primary explant of porcine carotid artery. In words: PDGF induced migration of cells of porcine origin (carotid artery explant), Boyden chamber. Type of experiment: cell-based. Conditions: hPDGF-BB 20 ng/ml; second passage cells; FIG. 13.

From patent publication US20050261283A1, “Methods and compositions for the treatment of graft failure” (priority 2002, published 2005) come the findings set out here.

In brackets after ≈: the same amount, converted by molar mass. Where a name gives a salt, the structure may show the parent alone.

As to `Cc1ccc(NC(=O)c2ccc(CN3CCN(C)CC3)cc2)cc1Nc1nccc(-c2cccnc2)n1` [Gleevec, imatinib mesylate], in experiment [1] (hPDGF-BB 20 ng/ml, 48 h pre-treatment, 12 h migration, FIG. 12), the “inhibition of PDGF induced migration of HASOM cells” value is reported as “potently inhibited PDGF induced migration of HASOM cells in a dose dependent manner”. Further, in experiment [2], the “inhibition of PDGF-B induced migration of porcine cells” value is “inhibited PDGF-B induced migration of theses porcine cells a dose dependent manner”.

On to `CO[C@H]1C[C@@H]2CC[C@@H](C)[C@@](O)(O2)C(=O)C(=O)N2CCCC[C@H]2C(=O)O[C@H]([C@H](C)C[C@@H]2CC[C@@H](O)[C@H](OC)C2)CC(=O)[C@H](C)/C=C(\C)[C@@H](O)[C@@H](OC)C(=O)[C@H](C)C[C@H](C)/C=C/C=C/C=C/1C` [rapamycin], for which, in experiment [1] (Homo sapiens, in vitro VSMC migration, read-out: IC50 for blocking VSMC migration), the IC50 was in the range of 1 to 5 ng/mL (≈ 1.09 to 5.47 nM).
